{"source": "patent US9668993B2", "about": "“Non-steroidal anti-inflammatory drug dosing regimen” (Johnson & Johnson Consumer Inc., priority 2003, dated 2017)", "test_system": "moderate to severe post-operative dental pain", "experiment": "PK/PD dental pain study, pain relief scores and pain intensity differences over 12 hours", "type": "in vivo, human", "details": "for pain relief during the first four hours: compared with the other treatments", "protocol": "A double-blind, randomized, parallel, placebo-controlled, single center, PK/PD dental pain study was conducted over a 12 hour observation period to evaluate the pharmacokinetic, pharmacodynamic, efficacy and safety profiles of certain ibuprofen dosing regimens. Specifically, a single dose of 600 mg ibuprofen extended release caplets was compared with equivalent total doses of ibuprofen immediate release 200 mg caplets administered in three different dosing regimens as well as placebo in the treatment of moderate to severe post-operative dental pain.\nThe ibuprofen was administered as ibuprofen extended release 600 mg caplets or one or more ibuprofen immediate release 200 mg caplets.\nThe patients evaluated in this study consisted of male or non-pregnant and non-lactating female out-patient volunteers, 16 years of age or older, complaining of moderate to severe pain following the surgical extraction of three or four third molars with at least one partial or complete bony impacted third mandibular molar. The term impacted included: partial bony impaction, bony impaction, or complicated bony impaction. A total of 210 patients were entered into the study. 208 patients were eligible for the efficacy analyses.\nAll patients who met the entrance criteria were enrolled in one of two study sub-groups. One sub-group of patients had both pharmacokinetic and pharmacodynamic evaluation (PK group). The other sub-group of patients had only the analgesic efficacy evaluations (non-PK group). A separate randomization schedule was used for each of the two sub-groups. Patients from both subgroups were assigned at random to one of the five following treatments:\nPatients' assessments of pain intensity and pain relief as well as blood samples for plasma ibuprofen analysis were obtained at the study site at hours 0, 0.25, 0.5, 1, 1.5, 2, 2.5, 3, 4, 4.5, 5, 6, 7, 8, 8.5, 9, 10, 11 and 12. A stopwatch technique was used to measure the onset of meaningful pain relief."}
{"compound": "CC(C)Cc1ccc(C(C)C(=O)O)cc1", "note": "(centres unmarked) [ibuprofen, 2-(4-isobutylphenyl)-propionic acid]", "values": [{"measurement": "pain relief during the first four hours", "setting": "400/200/0 regimen: immediate release 400 mg at 0 hour, 200 mg at 4 hours", "value": "superior pain relief over the other treatments"}, {"measurement": "pain relief over the entire 12 hour study period", "setting": "400/200/0 regimen: immediate release 400 mg at 0 hour, 200 mg at 4 hours, patients after third molar extraction", "value": "excellent pain relief"}, {"measurement": "pain relief scores during the 4 to 12 hour interval", "setting": "400/200/0 regimen, no further ibuprofen after the first four hours", "value": "highest pain relief scores"}, {"measurement": "pain intensity differences (PID) over the 12 hour study period", "setting": "400/200/0 regimen, particularly after the four hour mark", "value": "best PID"}, {"measurement": "pain relief during the first four hours", "setting": "600/0/0 immediate release regimen: 600 mg single dose at 0 hour", "value": "superior pain relief over the other treatments"}]}
